{"source": "patent US20120121574A1", "about": "“ANTIMICROBIAL, ANTIVIRAL, ANTICANCER AND IMMUNOMODULATORY PEPTIDES AND USES THEREFORE” (priority 2010, published 2012)", "key": {"PBMC": {"test_system": "PBMC", "experiment": "AlamarBlue cell viability assay on PBMC", "settings": "1-20 micrograms/ml concentration range, 24 hours", "method": "In vitro activity of N10K against HIV-1. PBMC from healthy donors were cultured at the concentration of 2×10^6 cells/ml in 96 wells plates with RPMI 1640 supplemented with 10% FBS, 1% glutamine and 20 UI/ml rIL-2 for 24 hr before treatment with N10K, then the peptide was added at increasing concentrations (1, 10 and 20 micrograms/ml) for 24 hours. AlamarBlue was added (10% v/v) and incubated for 4 hours at 37° C. Cells viability was determined by the AlamarBlue Assay (Biosource International, Inc.). The absorbance was measured with an ELISA plate reader (Tecan Sunrise Absorbance Reader) at the double wavelength of 570/595 nm. AlamarBlue added to the complete RPMI1640 medium was used as blank. […] To verify the anti-HIV-1 activity, an in vitro infection applying two different experimental approaches was performed. PBMC from 3 healthy donors were purified by Ficoll gradient centrifugation, mixed in pool and cultured in RPMI 1640 medium (10% FBS, 1% glutamine and 1% penicillin streptomycin). Before infection cells were stimulated for 24 hours with PHA (5 micrograms/ml) and after with rIL-2 (20 UI/ml). […] Viral replication was evaluated measuring the concentration of the p24 antigen in the culture supernatants by the HIV p24 ELISA Ultrasensitive detection kit (PerkinElmer, Inc.). […]"}, "[1]": {"test_system": "C. albicans SC5314 strain", "method": "In vitro activity of N10K against C. albicans SC5314 strain. The candidacidal activity of N10K peptide against C. albicans was assessed by a conventional colony forming unit (CFU) assay as previously described (Polonelli et al., 2003; Manfredi et al., 2005). Briefly, cells of C. albicans SC5314 were incubated at 37° C. for 6 hours (hr) in the presence of N10K at the concentration indicated of 20, 12.5 or 6.25 microgram/ml, or in distilled water as control (C). After incubation, cell suspensions were plated on Sabouraud dextrose agar and incubated at 30° C. for 48 hours when CFU were counted (** P<0.01 for N10K treated versus untreated cells, by t test). […]\nThe alanine-substituted derivatives (asd), defined according to the position held by the alanine-substituted aminoacid, were tested against C. albicans by a conventional colony forming unit (CFU) as previously described (Polonelli et al., 2003). Briefly, cells of C. albicans SC5314 were incubated at 37° C. for 6 hours in the presence of N10K or N10K asd at different scalar concentrations or distilled water as control. After incubation, cell suspensions were plated on Sabouraud dextrose agar and incubated at 30° C. for 48 hours when CFU were counted. Based on several independent replications, the EC50 value of each peptide was calculated by nonlinear regression analysis using Graph Pad Prism 4.01 software, San Diego, Calif., USA. […]\nIn vitro microbicidal activity of N10K derivative with 2 amino acid substitutions, or 80% sequence identity with native N10K, namely peptide Seq Id. No. 25 was tested against Candida albicans SC5314 as determined by Colony Forming Unit assay."}, "[2]": {"test_system": "B16F10-Nex2 melanoma cells", "experiment": "melanoma cell viability by Trypan Blue exclusion", "settings": "1 mM to 0.05 mM, 12 hr", "method": "(§1) In vitro activity of N10K against B16F10-Nex2, SKme128 and SKme125 melanoma cells. Peptide N10K and the relative scramble peptide (SP) used as negative control were diluted from 1 mM to 0.05 mM in RPMI with 10% FCS and incubated with B16F10-Nex2, SKme128 and SKme125 cells (5×10^3 cells/well) in 100 microliters per well for 12 hr at 37° C. Each peptide was tested in triplicate. After 12 hr, the cytotoxic activities of the peptides were determined by measuring cell viability by Trypan Blue exclusion. A 50% inhibition of cell growth was taken as a comparative index of cytotoxicity (EC50).\nas §1, with “T11F” for “N10K”, “microL” for “microliters”, “37 u°” for “37°”"}, "U937 cell line": {"test_system": "U937 cell line", "experiment": "annexine-V/propidium iodide flow cytometry on U937", "settings": "annexine-V/propidium iodide staining"}, "[3]": {"test_system": "C. neoformans 6995 strain", "settings": "6 hours 37° C.; multiple experiments", "procedure": "After the incubation period, the cell suspensions have been plated on Sabouraud dextrose agar, then incubated at 30° C. and observed for CFU enumeration after 48 hours."}}, "note": "Like-named read-outs stand apart in the source and are kept apart here. Where no end group is shown, it is not given here.", "data": [{"sequence": "NQVSLTCLVK [Peptide N10K, N Q V S L T C L V K]", "values": [{"measurement": "cytotoxicity for PBMC (cell viability)", "setting": "PBMC", "value": "not to be cytotoxic"}, {"measurement": "EC50", "setting": "[1]; 6 hours 37° C., several independent replications, peptide batches of Examples I and II", "value": 10, "unit": "µM"}, {"measurement": "EC50", "setting": "[1]; SC5314, 6 h", "value": 1, "unit": "µM"}, {"measurement": "cytotoxic activity (cell viability)", "setting": "[2]", "value": "showed activity"}, {"measurement": "induction of apoptotic/necrotic effects", "setting": "U937 cell line", "value": "exclude the induction of apoptotic/necrotic effects"}, {"measurement": "EC50", "setting": "[3]", "value": 5.16, "unit": "µM"}]}]}
